Source: ChEMBL document CHEMBL5131391, “One-pot three-component synthesis of novel pyrazolo[3,4-b]pyridines as potent antileukemic agents” (Eur J Med Chem, 2022)
The source made the active and inactive calls. The calls are words filed in the database; no cut-off is given here.

Legend:
Format in all cases: functional
[1] = tested on: COLO 205; experiment: Antiproliferative activity against human COLO 205 cells assessed as growth inhibition measured after 48 hrs by NCI protocol based SRB assay
[2] = tested on: PC-3; experiment: Cytostatic activity in human PC-3 cells assessed as tumor growth inhibition measured after 48 hrs by NCI protocol based SRB assay
[3] = tested on: MOLT-4; experiment: Antiproliferative activity against human MOLT-4 cells assessed as growth inhibition measured after 48 hrs by NCI protocol based SRB assay
[4] = tested on: NCI-H226; experiment: Cytostatic activity in human NCI-H226 cells assessed as tumor growth inhibition measured after 48 hrs by NCI protocol based SRB assay
[5] = tested on: HL-60(TB); experiment: Cytostatic activity in human HL-60(TB) cells assessed as tumor growth inhibition measured after 48 hrs by NCI protocol based SRB assay
[6] = tested on: ACHN; experiment: Cytostatic activity in human ACHN cells assessed as tumor growth inhibition measured after 48 hrs by NCI protocol based SRB assay
[7] = tested on: SNB-75; experiment: Cytostatic activity in human SNB-75 cells assessed as tumor growth inhibition measured after 48 hrs by NCI protocol based SRB assay
[8] = tested on: RXF 393; experiment: Antiproliferative activity against human RXF 393 cells assessed as growth inhibition measured after 48 hrs by NCI protocol based SRB assay
[9] = tested on: SR; experiment: Antiproliferative activity against human SR cells assessed as growth inhibition measured after 48 hrs by NCI protocol based SRB assay
[10] = tested on: SK-MEL-28; experiment: Antiproliferative activity against human SK-MEL-28 cells assessed as growth inhibition measured after 48 hrs by NCI protocol based SRB assay
[11] = tested on: MCF7; experiment: Antiproliferative activity against human MCF7 cells assessed as growth inhibition measured after 48 hrs by NCI protocol based SRB assay
[12] = tested on: CCRF-CEM; experiment: Antiproliferative activity against human CCRF-CEM cells assessed as growth inhibition measured after 48 hrs by NCI protocol based SRB assay
[13] = tested on: HCT-116; experiment: Cytostatic activity in human HCT-116 cells assessed as tumor growth inhibition measured after 48 hrs by NCI protocol based SRB assay
[14] = tested on: SF-295; experiment: Antiproliferative activity against human SF-295 cells assessed as growth inhibition measured after 48 hrs by NCI protocol based SRB assay
[15] = tested on: HCC 2998; experiment: Cytostatic activity in human HCC 2998 cells assessed as tumor growth inhibition measured after 48 hrs by NCI protocol based SRB assay
[16] = tested on: MDA-MB-468; experiment: Cytostatic activity in human MDA-MB-468 cells assessed as tumor growth inhibition measured after 48 hrs by NCI protocol based SRB assay
[17] = tested on: HT-29; experiment: Cytostatic activity in human HT-29 cells assessed as tumor growth inhibition measured after 48 hrs by NCI protocol based SRB assay
[18] = tested on: OVCAR-8; experiment: Antiproliferative activity against human OVCAR-8 cells assessed as growth inhibition measured after 48 hrs by NCI protocol based SRB assay
[19] = tested on: SK-MEL-5; experiment: Antiproliferative activity against human SK-MEL-5 cells assessed as growth inhibition measured after 48 hrs by NCI protocol based SRB assay
[20] = tested on: NCI-H460; experiment: Antiproliferative activity against human NCI-H460 cells assessed as growth inhibition measured after 48 hrs by NCI protocol based SRB assay
[21] = tested on: LOX IMVI; experiment: Antiproliferative activity against human LOX IMVI cells assessed as growth inhibition measured after 48 hrs by NCI protocol based SRB assay
[22] = tested on: U-251; experiment: Antiproliferative activity against human U-251 cells assessed as growth inhibition measured after 48 hrs by NCI protocol based SRB assay
[23] = tested on: NCI-H23; experiment: Antiproliferative activity against human NCI-H23 cells assessed as growth inhibition measured after 48 hrs by NCI protocol based SRB assay
[24] = tested on: UO-31; experiment: Cytostatic activity in human UO-31 cells assessed as tumor growth inhibition measured after 48 hrs by NCI protocol based SRB assay
[25] = tested on: 786-0; experiment: Cytostatic activity in human 786-0 cells assessed as tumor growth inhibition measured after 48 hrs by NCI protocol based SRB assay
[26] = tested on: SR; experiment: Cytostatic activity in human SR cells assessed as tumor growth inhibition measured after 48 hrs by NCI protocol based SRB assay
[27] = tested on: K562; experiment: Cytostatic activity in human K562 cells assessed as tumor growth inhibition measured after 48 hrs by NCI protocol based SRB assay
[28] = tested on: CAKI-1; experiment: Antiproliferative activity against human CAKI-1 cells assessed as growth inhibition measured after 48 hrs by NCI protocol based SRB assay
[29] = tested on: NCI/ADR-RES; experiment: Cytostatic activity in human NCl/ADR-RES cells assessed as tumor growth inhibition measured after 48 hrs by NCI protocol based SRB assay
[30] = tested on: SK-MEL-2; experiment: Cytostatic activity in human SK-MEL-2 cells assessed as tumor growth inhibition measured after 48 hrs by NCI protocol based SRB assay
[31] = tested on: OVCAR-4; experiment: Cytostatic activity in human OVCAR-4 cells assessed as tumor growth inhibition measured after 48 hrs by NCI protocol based SRB assay
[32] = tested on: SN12C; experiment: Cytostatic activity in human SN12C cells assessed as tumor growth inhibition measured after 48 hrs by NCI protocol based SRB assay
[33] = tested on: KM12; experiment: Cytostatic activity in human KM12 cells assessed as tumor growth inhibition measured after 48 hrs by NCI protocol based SRB assay
[34] = tested on: OVCAR-8; experiment: Cytostatic activity in human OVCAR-8 cells assessed as tumor growth inhibition measured after 48 hrs by NCI protocol based SRB assay
[35] = tested on: TK-10; experiment: Cytostatic activity in human TK-10 cells assessed as tumor growth inhibition measured after 48 hrs by NCI protocol based SRB assay
[36] = tested on: Malme-3M; experiment: Cytostatic activity in human Malme-3M cells assessed as tumor growth inhibition measured after 48 hrs by NCI protocol based SRB assay
[37] = tested on: UACC-257; experiment: Antiproliferative activity against human UACC-257 cells assessed as growth inhibition measured after 48 hrs by NCI protocol based SRB assay
[38] = tested on: RS4-11; experiment: Induction of cell cycle arrest in human RS4-11 cells assessed as accumulation of cells in G2/M phase measured after 48 hrs by PI staining based flow cytometry analysis; conditions: dose 1.25-10 µM, DDE = dose-dependent effect
[39] = tested on: RS4-11; experiment: Induction of cell cycle arrest in human RS4-11 cells assessed as accumulation of cells in G2/M phase at 1.25 to 10 uM measured after 72 hrs by PI staining based flow cytometry analysis; conditions: dose 1.25-10 µM
[40] = read-out: LC50 (the source's name)

N#Cc1c(-c2ccccc2)nc2c(c(-c3ccccc3)nn2-c2ccccc2)c1-c1ccc(O)cc1
GI50 [1]: 2.61 µM | CC50 [1, 40]: 58.2 µM | TGI [2]: 3.78 µM | GI50 [3]: 2.49 µM | CC50 [3, 40]: > 100 µM | TGI [4]: 4.51 µM | TGI [5]: 23.7 µM | TGI [6]: 5.89 µM | TGI [7]: 7.28 µM | GI50 [8]: 1.03 µM | CC50 [8, 40]: 5.37 µM | GI50 [9]: 2.95 µM | CC50 [9, 40]: > 100 µM | GI50 [10]: 1.58 µM | CC50 [10, 40]: 5.86 µM | GI50 [11]: 1.86 µM | CC50 [11, 40]: 90 µM | GI50 [12]: 3.13 µM | CC50 [12, 40]: > 100 µM | TGI [13]: 7.32 µM | GI50 [14]: 1.88 µM | CC50 [14, 40]: 9.8 µM | TGI [15]: 3.47 µM | TGI [16]: 5.57 µM | TGI [17]: 6.44 µM | GI50 [18]: 3.14 µM | CC50 [18, 40]: > 100 µM | GI50 [19]: 1.75 µM | CC50 [19, 40]: 5.79 µM | GI50 [20]: 1.73 µM | CC50 [20, 40]: 6.13 µM | GI50 [21]: 1.68 µM | CC50 [21, 40]: 5.55 µM | GI50 [22]: 1.63 µM | CC50 [22, 40]: 9.71 µM | GI50 [23]: 1.78 µM | CC50 [23, 40]: 8.26 µM | TGI [24]: 4.17 µM | TGI [25]: 5.35 µM | TGI [26]: > 100 µM | TGI [27]: > 100 µM | GI50 [28]: 2.48 µM | CC50 [28, 40]: 23.8 µM | TGI [29]: 5.62 µM | TGI [30]: 5.65 µM | TGI [31]: 4.66 µM | TGI [32]: 3.04 µM | TGI [33]: 4.76 µM | TGI [34]: 11.7 µM | TGI [35]: 8.19 µM | TGI [36]: 3.83 µM | GI50 [37]: 3.13 µM | CC50 [37, 40]: 6.55 µM

Cc1ccc(-c2nc3c(c(-c4ccccc4)nn3-c3ccccc3)c(-c3ccc(O)cc3)c2C#N)cc1
Activity [38]: Dde | Activity [39]: Active
